Laboratory results published in US9181575B2 (priority 2008, dated 2015).

Test system: Legionella pneumophila
Format: cell-based
Conditions: after THPS 15 mg/L, 60 min; 0.1% pyruvate and/or 1% glutamic acid in BCYE

SMILES	ratio of number of culturable Legionella on supplemented medium to standard medium (BCYE)
N[C@@H](CCC(=O)O)C(=O)O [glutamic acid]	0.2
CC(=O)C(=O)O [pyruvate]	45
